From ChEMBL document CHEMBL4400557, “The potential of click reactions for the synthesis of bioactive triterpenes” (Bioorg Med Chem Lett, 2019) come the findings set out here.

The structures appear in SMILES notation.

Broadly, the IC50 is the concentration that gives 50% inhibition. A low value points to inhibition by little substance. As usually defined, the GI50 is the concentration that inhibits growth by half. A lower GI50 goes with greater sensitivity of the cells.

Experiment [1] is described as follows: Inhibition of glycogen phosphorylase (unknown origin). More on the design: species or system Homo sapiens.
In a further experiment the test system is KB. The experiment is described as follows: Antiproliferative activity against human KB cells. The class given is functional, cell-based.
Experiment [2] can be described thus: Antiproliferative activity against human A375-S2 cells after 72 hrs by MTT assay. The class given is functional, cell-based. The note with it: A375-S2, 72 h.
A further experiment relates to HT-1080. The experiment is described as follows: Antiproliferative activity against human HT1080 cells after 72 hrs by MTT assay. In kind it is functional, cell-based. The following applies: HT-1080, 72 h. Background: Tetrazolium assays rely on reduction of a dye to a coloured formazan, in cell work by metabolically active cells.
Experiment [3] deals with Human immunodeficiency virus 1. Kind of experiment: Antiviral activity against HIV-1 NL4-3. The note with it: Human immunodeficiency virus 1, NL4-3. The class given is functional, organism-based.
Experiment [4] is described as follows: Inhibition of rabbit muscle glycogen phosphorylase. More on the design: species or system Oryctolagus cuniculus.
The test system of a further experiment is HL-60. Kind of experiment: Antiproliferative activity against human HL60 cells by MTT assay. In kind it is functional, cell-based.
The test system of the next experiment is AGS. Kind of experiment: Antiproliferative activity against human AGS cells after 3 days by MTT assay. The following applies: 72 h. The class given is functional, cell-based.
The subject of a further experiment is CCRF-CEM. Kind of experiment: Cytotoxicity in human CCRF-CEM cells incubated for 72 hrs by SRB assay. In kind it is functional, cell-based. (In general: In SRB staining, fixed cells bind dye roughly in proportion to their protein.)
Another experiment deals with MDA-MB-231. Kind of experiment: Antiproliferative activity against human MDA-MB-231 cells by SRB assay. In kind it is functional.

As to `CO[C@H]1O[C@H](Cn2cc(COC(=O)[C@]34CCC(C)(C)C[C@H]3C3=CC[C@@H]5[C@@]6(C)CC[C@H](O)C(C)(C)[C@@H]6CC[C@@]5(C)[C@]3(C)CC4)nn2)[C@@H](O)[C@H](O)[C@H]1O`, half-maximal inhibition in experiment [1] (IC50) was put at 1.4 µM.

Turning to `C=C(C)[C@@H]1CC[C@]2(C(=O)NCc3cn(C4CC(n5cc(C)c(=O)[nH]c5=O)OC4CO)nn3)CC[C@]3(C)[C@H](CC[C@@H]4[C@@]5(C)CC[C@H](OC(=O)CC(=O)OC)C(C)(C)[C@@H]5CC[C@]43C)[C@@H]12` (stereo partly specified), the half-inhibitory concentration (IC50) in the experiment with KB came to 8.1 µM.

On to `CC1(C)CC[C@]2(C(=O)OCc3cn(-c4ccc([N+](=O)[O-])cc4)nn3)CC[C@]3(C)C(=CC[C@@H]4[C@@]5(C)CC[C@H](O)C(C)(C)[C@@H]5CC[C@]43C)[C@@H]2C1`, for which the IC50 in [2] amounted to 4.97 µM; in the experiment on HT-1080 it was 3.51 µM.

Turning to `CC1(C)CC[C@]2(C(=O)O)CC[C@]3(C)C(=CC[C@@H]4[C@@]5(C)CC[C@H](OCc6cn(CCCCCCn7cc(CO[C@H]8CC[C@]9(C)[C@H]%10CC=C%11[C@@H]%12CC(C)(C)CC[C@]%12(C(=O)O)CC[C@@]%11(C)[C@]%10(C)CC[C@H]9C8(C)C)nn7)nn6)C(C)(C)[C@@H]5CC[C@]43C)[C@@H]2C1`, half-maximal inhibition in experiment [1] (IC50) was put at 2.59 µM.

In turn, `C=C(C)[C@@H]1CC[C@]2(C(=O)O[Si](c3ccccc3)(c3ccccc3)C(C)(C)C)CC[C@]3(C)[C@H](CC[C@@H]4[C@@]5(C)CC[C@H](O)C(C)(C)[C@@H]5CC[C@]43C)[C@@H]12` returned a half-maximal inhibitory concentration (IC50) in experiment [3] of 0.19 µM.

In [4], `CCCCCCCCC(=O)OCc1cn(CC(=O)O[C@H]2CC[C@]3(C)[C@H]4CC=C5[C@@H]6CC(C)(C)CC[C@]6(C(=O)O)CC[C@@]5(C)[C@]4(C)CC[C@H]3C2(C)C)nn1` yielded an IC50 of 5.4 µM.

`C=C(Cn1cc(-c2ccc(F)cc2)nn1)[C@@H]1CC[C@]2(C(=O)O)CC[C@]3(C)[C@H](CC[C@@H]4[C@@]5(C)CC[C@H](O)C(C)(C)[C@@H]5CC[C@]43C)[C@@H]12` displayed a concentration for half-maximal inhibition (IC50) with HL-60 of 1.7 µM.

`CC1(C)CC[C@]2(C(=O)O)CC[C@]3(C)C(=CC[C@@H]4[C@@]5(C)CC[C@H](OC(=O)CCc6cn(Cc7ccc(Cl)cc7)nn6)C(C)(C)[C@@H]5CC[C@]43C)[C@@H]2C1` had a concentration for half-maximal inhibition (IC50) in the experiment on AGS of 8.9 µM.

Molecule `C=C(Cn1cc(-c2ccccc2C=O)nn1)[C@@H]1CC[C@]2(C(=O)O)CC[C@]3(C)[C@H](CC[C@@H]4[C@@]5(C)CC[C@H](OC(C)=O)C(C)(C)[C@@H]5CC[C@]43C)[C@@H]12` showed an IC50 in the experiment with CCRF-CEM of 3.3 µM.

On to `C[C@H]1[C@H](C)CC[C@]2(C(=O)OCCCn3cc(COC(=O)[C@]45CC[C@@H](C)[C@H](C)[C@H]4C4=CC[C@@H]6[C@@]7(C)CC[C@H](O)C(C)(C)[C@@H]7CC[C@@]6(C)[C@]4(C)CC5)nn3)CC[C@]3(C)C(=CC[C@@H]4[C@@]5(C)CC[C@H](O)C(C)(C)[C@@H]5CC[C@]43C)[C@H]12`, for which halving of growth in the experiment on MDA-MB-231 (GI50) required 1.4 µM.
